2 molecules from ChEMBL document CHEMBL1156514, “Chemical genetics define the roles of p38alpha and p38beta in acute and chronic inflammation” (J Biol Chem, 2007) can be followed below.

For assay [1], the system named is Mus musculus. The experiment in a line: Inhibition of LPS-stimulated TNFalpha production in p38beta deficient C57BL/6 mouse plasma at 3 mg/kg, po after 90 mins by ELISA. In kind it is functional, organism-based. Set-up: dose 3 mg/kg.
For assay [2], the system named is Mus musculus. The experiment in a line: Inhibition of LPS-stimulated TNFalpha production in wild type C57BL/6 mouse plasma at 3 mg/kg, po after 90 mins by ELISA. In kind it is functional, organism-based. Also noted: dose 3 mg/kg.
In assay [3] the test system is Mus musculus. Briefly: Inhibition of LPS-stimulated TNFalpha production in p38alpha T106M mutant expressing C57BL/6 mouse plasma at 3 mg/kg, po after 90 mins by ELISA. Type of assay: functional, organism-based. Set-up: dose 3 mg/kg.
The test system of assay [4] is Mus musculus. Briefly: Inhibition of LPS-stimulated TNFalpha production in p38beta T106M mutant expressing C57BL/6 mouse plasma at 3 mg/kg, po after 90 mins by ELISA. Type of assay: functional, organism-based. Set-up: dose 3 mg/kg.
A short description of assay [5]: Inhibition of LPS-stimulated TNFalpha production in p38alpha T106M mutant expressing mouse peritoneal exudates cells by ELISA. Type of assay: functional.
The nature of assay [6]: Inhibition of LPS-stimulated TNFalpha production in p38beta T106M mutant expressing mouse peritoneal exudates cells by ELISA. In kind it is functional.
Assay [7] has as its target Mitogen-activated protein kinase 11 (Homo sapiens, UniProt Q15759, T106M). Briefly: Inhibition of p38beta T106M mutant.
The subject of assay [8] is Mus musculus. Briefly: Inhibition of collagen antibody-induced arthritis in p38beta T106M mutant expressing C57BL/6 mouse at 3 mg/kg, po administered daily once 24 hrs after LPS challenge. Set-up: dose 3 mg/kg. Type of assay: functional, organism-based.
The test system of assay [9] is Mus musculus. The experiment in a line: Inhibition of collagen antibody-induced arthritis in p38alpha T106M mutant expressing C57BL/6 mouse at 3 mg/kg, po administered daily once 24 hrs after LPS challenge. In kind it is functional, organism-based. Set-up: dose 3 mg/kg.
Assay [10] concerns Mus musculus. Briefly: Inhibition of collagen antibody-induced arthritis in wild type C57BL/6 mouse at 3 mg/kg, po administered daily once 24 hrs after LPS challenge. In kind it is functional, organism-based. Set-up: dose 3 mg/kg.
Assay [11] addresses Mitogen-activated protein kinase 14 (Homo sapiens, UniProt Q16539, T106M). The experiment in a line: Inhibition of p38alpha T106M mutant.
Assay [12] can be described thus: Inhibition of LPS-stimulated TNFalpha production in p38alpha expressing mouse peritoneal exudates cells by ELISA. Type of assay: functional.
A short description of assay [13]: Inhibition of LPS-stimulated TNFalpha production in p38beta deficient mouse peritoneal exudates cells by ELISA. In kind it is functional.
Assay [14] deals with Mitogen-activated protein kinase 11 (Homo sapiens, UniProt Q15759). Briefly: Inhibition of wild type p38beta.
The target in assay [15] is Mitogen-activated protein kinase 14 (Homo sapiens, UniProt Q16539). The experiment in a line: Inhibition of wild type p38alpha.

pIC50: −log10 of the molar value. Activity calls are given as the source filed them. The calls are words filed in the database; no cut-off is given here. Where only a bound is given, the exact number is not on record here.

Mitogen-activated protein kinase 11 (Homo sapiens, UniProt Q15759), sequence (Q15759 whole entry): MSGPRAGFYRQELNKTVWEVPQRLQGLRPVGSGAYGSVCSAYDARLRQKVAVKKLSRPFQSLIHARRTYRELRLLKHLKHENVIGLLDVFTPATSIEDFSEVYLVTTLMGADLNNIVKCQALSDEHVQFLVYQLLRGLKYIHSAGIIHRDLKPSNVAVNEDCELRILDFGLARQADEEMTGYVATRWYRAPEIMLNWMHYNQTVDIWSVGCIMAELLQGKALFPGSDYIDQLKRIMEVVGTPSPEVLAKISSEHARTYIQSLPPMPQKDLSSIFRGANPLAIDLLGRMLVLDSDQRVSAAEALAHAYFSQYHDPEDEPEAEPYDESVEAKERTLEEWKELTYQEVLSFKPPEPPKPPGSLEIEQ
Mitogen-activated protein kinase 14 (Homo sapiens, UniProt Q16539, T106M), sequence (Q16539 2-360 T106M limits assumed): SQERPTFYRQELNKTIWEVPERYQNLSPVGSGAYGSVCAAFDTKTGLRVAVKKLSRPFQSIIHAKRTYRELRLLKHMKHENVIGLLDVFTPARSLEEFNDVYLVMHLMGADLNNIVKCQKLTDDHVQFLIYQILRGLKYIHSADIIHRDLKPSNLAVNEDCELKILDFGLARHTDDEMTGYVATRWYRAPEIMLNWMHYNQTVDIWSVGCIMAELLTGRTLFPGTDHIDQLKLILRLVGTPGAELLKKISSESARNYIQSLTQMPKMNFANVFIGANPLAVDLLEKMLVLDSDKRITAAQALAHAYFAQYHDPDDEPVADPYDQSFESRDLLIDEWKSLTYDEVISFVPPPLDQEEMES
Mitogen-activated protein kinase 11 (Homo sapiens, UniProt Q15759, T106M), sequence (Q15759 whole entry T106M): as the sequence (Q15759 whole entry) above, with T106M counted along it
Mitogen-activated protein kinase 14 (Homo sapiens, UniProt Q16539), sequence (Q16539 whole entry): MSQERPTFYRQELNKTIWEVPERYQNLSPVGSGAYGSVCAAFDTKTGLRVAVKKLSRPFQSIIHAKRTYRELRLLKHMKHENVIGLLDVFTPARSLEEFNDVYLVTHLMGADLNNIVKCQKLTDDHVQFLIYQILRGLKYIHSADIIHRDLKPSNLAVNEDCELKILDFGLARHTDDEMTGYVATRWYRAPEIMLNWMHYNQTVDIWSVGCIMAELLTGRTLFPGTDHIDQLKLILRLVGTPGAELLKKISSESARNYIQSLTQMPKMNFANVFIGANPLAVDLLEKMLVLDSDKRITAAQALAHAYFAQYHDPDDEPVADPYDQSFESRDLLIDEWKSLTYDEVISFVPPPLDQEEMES

Consider `C[C@H](Nc1cc(-c2c(-c3cccc(C(F)(F)F)c3)nc(C3CCNCC3)n2C)ccn1)c1ccccc1`, for which the outcome in the assay with Mus musculus [1], in the assay with Mus musculus [2] and in the assay on Mus musculus [4] was Active. Further, the outcome with Mus musculus [3] was inactive.

Turning to `CC(C)(C)N1CCC(c2cc(-c3ccc(F)cc3F)c3ccc(=O)n(-c4c(Cl)cccc4Cl)c3c2)CC1`, the pIC50 is less than 6.60 in assay [5]; 8.08 in assay [6]; 6.59 in assay [7]; 7.55 in assay [11]; 8.46 in [12]; 8.17 in assay [13]. In addition, the values for the negative logarithm of the IC50 (pIC50) in [14] and in assay [15] were 9.60 and 10.10, respectively. For the same molecule, the result with Mus musculus [8] and with Mus musculus [10] was Active. Also, the outcome in the assay on Mus musculus [9] was inactive.
